Reference: publication PMC12314576, “The Actin‐Binding Prolyl‐Isomerase Par17 Sustains Its Substrate Selectivity by Interdomain Allostery” (Proteins, 2025)
Starred links: 1 amine or outer side, 2 acyl side, 3 side chain; linkers in the order of their positions; H or OH if unused. Residues, ends and D or L forms follow the SMILES beside them. *: point of attachment. pNA = O=[N+]([O-])c1ccc(N*)cc1; Suc = O=C(CCC(=O)[*:2])[*:1]

What was measured:
Par17Δ61–156 = assay: NMR titration of substrate peptides to 15N-labeled N-terminus of Par17; type: binding, human; conditions: 15N-BEST-TROSY-HSQC, 50 mM KPi pH 6.7, 20°C; protein 0.3 mM, substrate 3 mM
Description: To elucidate the physical nature of the chemical shift changes in Par17 upon the addition of selected substrate peptides, we investigated whether the isolated N‐terminus of Par17 (Par17Δ61–156) is also capable of binding various substrates on its own. […] This indicates the existence of an independent binding epitope located within the N‐terminus.
In the next step, we studied if this binding epitope is selectively interacting with peptides carrying Xaa‐Pro motifs. We already knew from former studies that model peptides carrying alanine instead of proline in the Xaa position are capable of binding to the hydrophobic catalytic center without being catalyzed.
For NMR measurements, purified and concentrated proteins in salt‐free buffers were mixed with 10% D2O and 1 μL DSS standard. Spectra were measured on an ultra shield 700‐NMR (Bruker, Billerica, US) with a triple resonance cryoprobe (700 MHz). For recording and processing of data, the software Topspin 3.5 was used. Analysis of spectra was carried out using Cara analysis software 2.3.1 (Rochus L.J. Keller) and/or CcpNmr Analysis 2.3.1 (Department of Molecular and Cell Biology, University of Leicester, UK). […]
They were added stepwise to 200 μL of the labeled parvulins (300 μM in 50 mM KPi buffer pH 6.7). Spectra were recorded with the pulse program Best‐TROSY at 20°C. Combined chemical shifts were calculated as described. […]

Par17 [1] = target: T1, Par17 (Homo sapiens, UniProt Q9Y237); assay: Protease-coupled isomerase assay (PPIase assay) with Par17; type: biochemical; conditions: for k = kobserved - kthermic, Par17: α-chymotrypsin 35 μM, PBS pH 6.8, 10°C, substrate 75 μM, PPIase 2 μM, absorbance 390 nm, mean ± SD
T1 construct: full‐length Par17 and the N‐terminus of Par17; GST-His6 (PreScission site) (N, cleaved yes); Gly-Pro remnant of the PreScission site (Gly stands at position 1 in place of Met1); made in house; host or cells: E. coli BL21 (DE3) T1r
T1 sequence (Q9Y237 1-156 isoform Q9Y237-2): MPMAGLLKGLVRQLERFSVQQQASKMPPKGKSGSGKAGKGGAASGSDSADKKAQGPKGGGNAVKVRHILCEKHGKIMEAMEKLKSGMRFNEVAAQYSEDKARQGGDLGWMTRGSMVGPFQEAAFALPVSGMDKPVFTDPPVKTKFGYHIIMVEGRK
Protocol: (§1) To determine the catalytic efficiency and substrate specificity of Par14 and Par17, we performed a protease‐coupled assay. In this assay, the trans form of a para‐nitroaniline (pNA) tagged model substrate is cleaved by chymotrypsin, and the resulting change in absorption at 390 nm due to free pNA is measured. When the model substrate is added to the protease‐containing buffer, all trans‐Xaa‐Pro isomers are immediately cleaved by chymotrypsin. Therefore, the extent of the first signal burst observed in the absorption spectrum correlates with the amount of trans isomers of the model substrate formed during the experimental dead time. The remaining cis‐Xaa substrates now start to isomerize by thermal (in the absence of PPIase) or catalytic reaction (in the presence of PPIase). The newly formed trans‐Xaa substrates are immediately cleaved, and isomerization can thus be monitored over time (Figure 2). Eighteen different substrate peptides with varying amino acids at the Xaa position (Suc‐Ala‐Xaa‐Pro‐Phe‐pNa) were measured to determine the isomerase activity and substrate selectivity of Par14 (Par17Δ1–25), Par17, and the catalytic domain (Par17Δ1–60) (Table S1). The catalytic efficiency is obtained from the observed isomerization curves by calculating the difference between the rate constant in the presence of enzyme and the rate constant obtained from thermal isomerization.
(§2) We determined the isomerase activity using the PPIase assay described by. The lyophilized peptides were dissolved in an adequate volume of 0.5 mM‐LiCl/TFE buffer to obtain a 15 mM stock solution. To achieve a stable cis/trans ratio the mixture was incubated overnight at 4°C. The next day a stock solution of 350 μM α‐chymotrypsin in PBS was incubated on ice for at least 20 min. For measurements without PPIase PBS buffer (pH 6.8) was mixed with α‐chymotrypsin to a final concentration of 35 μM in 1 mL. A baseline was recorded for 5 min (Cary 100Bio UV/Vis spectrophotometer, Varian/Agilent, Santa Clara, US, λ: 390 nm, bandwidth: 1.0 nm, average time between measurements: 0.5 s, temperature: 10°C). After 5 min the substrate peptide was added to a final concentration of 75 μM in 1 mL [59]. The solution was mixed by inverting the cuvette three times and the reaction was recorded for 15 min. Measurements in the presence of PPIase were performed in the same way, except that before the baseline measurement, the appropriate isomerase was added in a final concentration of 2 μM in 1 mL in addition to PBS and α‐chymotrypsin.
(§3) For the data analysis, a mean value of the baseline was subtracted (average of the first 200 data points). The measured values were normalized according to the respective maximum of the measurement. To determine the rate constant, the program graph pad was used, and non‐linear curve fitting was applied for each measurement (exponential, one‐phase association). (1) Y=Y0+Plateau−Y0∙1−e^−K∙x
(§4) where x is the time (min), Y is the absorbance, Y 0 is the absorbance when x = 0, Plateau is the Y value at infinite times, K is the rate constant (min^−1).
(§5) The K cat/K M value was calculated according to Equation (2): (2) kcat/KM=kobs−ktherm/PPIase where k cat/K M is the catalytic efficiency (M^−1 s^−1), k obs, rate constant of the observed reaction (s^−1), k therm is the rate constant of the thermic reaction (s^−1), and [PPIase] is the concentration of PPIase used in the assay (M).
(§6) The obtained data are fitted to Equation (2) using a pseudo first‐order assumption. This is the case, if k obs values behave linearly with rising PPIase concentrations.

Par14 (Par17Δ1-25) = target: T2, Par14 (Par17Δ1-25) (Homo sapiens, UniProt Q9Y237); assay: Protease-coupled isomerase assay (PPIase assay) with Par14; type: biochemical; conditions: α-chymotrypsin 35 μM, PBS pH 6.8, 10°C, substrate 75 μM, PPIase 2 μM, absorbance 390 nm; mean ± SD
T2 construct: Comparison of spectra of full‐length parvulin proteins and PPIase domain; GST-His6 (PreScission site) (N, cleaved yes); made in house; host or cells: E. coli BL21 (DE3) T1r
T2 sequence (Q9Y237 whole entry, stated change not applied, the tested form may be a part): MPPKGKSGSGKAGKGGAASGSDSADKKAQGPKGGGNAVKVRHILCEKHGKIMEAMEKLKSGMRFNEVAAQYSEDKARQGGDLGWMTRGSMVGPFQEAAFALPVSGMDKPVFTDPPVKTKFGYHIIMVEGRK
Protocol: as §1, §2, §3, §4, §5, §6

[2] = target: T3, PPIase domain (Par17Δ1-60) (Homo sapiens, UniProt Q9Y237); assay: Protease-coupled isomerase assay (PPIase assay) with the catalytic domain; type: biochemical; conditions: α-chymotrypsin 35 μM, PBS pH 6.8, 10°C, substrate 75 μM, PPIase 2 μM, absorbance 390 nm; mean ± SD
T3 construct: GST-His6 (PreScission site) (N, cleaved yes); made in house; host or cells: E. coli BL21 (DE3) T1r
T3 sequence (Q9Y237 36-131, stated change not applied): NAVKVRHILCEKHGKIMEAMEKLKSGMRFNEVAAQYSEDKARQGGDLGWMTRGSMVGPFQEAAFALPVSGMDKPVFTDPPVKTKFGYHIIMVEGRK
Protocol: as §1, §2, §3, §4, §5, §6

Par17 [3] = target: T1, Par17; assay: NMR titration of substrate peptides to 15N-labeled full-length Par17; type: binding; conditions: 300 μM Par17, KPi pH 6.7, 20°C
Protocol: The amide signals were assigned and combined chemical shift changes between the signals of free and substrate‐bound isomers were calculated.
For NMR measurements, purified and concentrated proteins in salt‐free buffers were mixed with 10% D2O and 1 μL DSS standard. Spectra were measured on an ultra shield 700‐NMR (Bruker, Billerica, US) with a triple resonance cryoprobe (700 MHz). For recording and processing of data, the software Topspin 3.5 was used. Analysis of spectra was carried out using Cara analysis software 2.3.1 (Rochus L.J. Keller) and/or CcpNmr Analysis 2.3.1 (Department of Molecular and Cell Biology, University of Leicester, UK).
Titration of substrate peptides to ^ 15 N‐labeled full‐length Par17 and the N‐terminus of Par17: The following substrate peptides were diluted in salt‐free 50 mM KPi buffer pH 6.7 to a concentration of 15 mM (Suc: Succinyl, pNA: para‐Nitroanilin):
They were added stepwise to 200 μL of the labeled parvulins (300 μM in 50 mM KPi buffer pH 6.7). Spectra were recorded with the pulse program Best‐TROSY at 20°C. Combined chemical shifts were calculated as described. Microscopic dissociation constant K D was fitted with the following equation (assuming a 1:1 binding model): (4) ∆δ=∆δmax·P+x+KD−P+x+KD^2−4·x·P/2·P
where ∆δmax is the amplitude, P is the protein concentration, X is the concentration of the peptide.
Differences in chemical shift changes could be measured up to 0.001 ppm (error in peak picking). Changes were interpreted as significant if Δ > 0.004 ppm and when appearing consecutively in a linear sequence element.
The microscopic K D describes the binding affinity of the ligand to a single side of an amino acid.

Compound: Suc–Ala–Glu–Ala–Phe–pNA [proline-free model peptide carrying alanine instead of proline]
- binding to the N-terminal epitope of Par17 (Par17Δ61–156): interact with the N‐terminal epitope

Compound: C[C@H](NC(=O)CCC(=O)O)C(=O)N[C@@H](CCCNC(=N)N)C(=O)N1CCC[C@H]1C(=O)N[C@@H](Cc1ccccc1)C(=O)Nc1ccc([N+](=O)[O-])cc1 [Arg, Suc‐Ala‐Arg‐Pro‐Phe‐pNa] (Suc-ARPF-pNA)
- k cat/K M of Par17, times higher than for Leu‐Pro, Gln‐Pro or His‐Pro peptides (Par17 [1]; ratio of k cat/K M values): approximately 10 times
- k = kobserved - kthermic, Par17 (Par17 [1]): 0.470 ± 0.037 min⁻¹
- k = kobserved - kthermic, Par14 (Par17Δ1-25) (Par14 (Par17Δ1-25)): 0.582 ± 0.094 min⁻¹
- k = kobserved - kthermic, PPIase domain (Par17Δ1-60) [2]: 0.683 ± 0.064 min⁻¹
- Combined chemical shift perturbation of full length Par17, 115M (Par17 [3]; peptide 0,2 mM): 0,0060079 ppm
- Combined chemical shift perturbation of full length Par17, 119F (Par17 [3]; peptide 0,2 mM): 0,00418543 ppm
- Combined chemical shift perturbation of full length Par17, 115M (Par17 [3]; peptide 0,4 mM): 0,00801333 ppm
- Combined chemical shift perturbation of full length Par17, 116V (Par17 [3]; peptide 0,4 mM): 0,06817833 ppm
- Combined chemical shift perturbation of full length Par17, 119F (Par17 [3]; peptide 0,4 mM): 0,00841748 ppm
- Combined chemical shift perturbation of full length Par17, 115M (Par17 [3]; peptide 1 mM): 0,0143348 ppm
- Combined chemical shift perturbation of full length Par17, 116V (Par17 [3]; peptide 1 mM): 0,13037308 ppm
- Combined chemical shift perturbation of full length Par17, 119F (Par17 [3]; peptide 1 mM): 0,01835824 ppm
- Combined chemical shift perturbation of full length Par17, 115M (Par17 [3]; peptide 2 mM): 0,02655282 ppm
- Combined chemical shift perturbation of full length Par17, 116V (Par17 [3]; peptide 2 mM): 0,18551846 ppm
- Combined chemical shift perturbation of full length Par17, 119F (Par17 [3]; peptide 2 mM): 0,03376697 ppm
- Combined chemical shift perturbation of full length Par17, 115M (Par17 [3]; peptide 3 mM): 0,03809928 ppm
- Combined chemical shift perturbation of full length Par17, 116V (Par17 [3]; peptide 3 mM): 0,23776807 ppm
- Combined chemical shift perturbation of full length Par17, 119F (Par17 [3]; peptide 3 mM): 0,04577626 ppm
- Combined chemical shift perturbation of full length Par17, 115M (Par17 [3]; peptide 4 mM): 0,0454705 ppm
- Combined chemical shift perturbation of full length Par17, 119F (Par17 [3]; peptide 4 mM): 0,05474353 ppm
- Combined chemical shift perturbation of full length Par17, 115M (Par17 [3]; peptide 5 mM): 0,0546769 ppm
- Combined chemical shift perturbation of full length Par17, 119F (Par17 [3]; peptide 5 mM): 0,06351885 ppm

Compound: CC(C)[C@H](NC(=O)[C@H](C)NC(=O)CCC(=O)O)C(=O)N1CCC[C@H]1C(=O)N[C@@H](Cc1ccccc1)C(=O)Nc1ccc([N+](=O)[O-])cc1 [Val, Suc‐Ala‐Val‐Pro‐Phe‐pNa] (Suc-AVPF-pNA)
- k = kobserved - kthermic, Par17 (Par17 [1]): 0.011 ± 0.005 min⁻¹
- k = kobserved - kthermic, Par14 (Par17Δ1-25) (Par14 (Par17Δ1-25)): 0.408 ± 0.432 min⁻¹
- k = kobserved - kthermic, PPIase domain (Par17Δ1-60) [2]: 0.289 ± 0.166 min⁻¹
- Combined chemical shift perturbation of full length Par17, 113G (Par17 [3]; peptide 0,35 mM): 0,024 ppm
- Combined chemical shift perturbation of full length Par17, 115M (Par17 [3]; peptide 0,35 mM): 0,015 ppm
- Combined chemical shift perturbation of full length Par17, 116V (Par17 [3]; peptide 0,35 mM): 0,049 ppm
- Combined chemical shift perturbation of full length Par17, 119F (Par17 [3]; peptide 0,35 mM): 0,022 ppm
- Combined chemical shift perturbation of full length Par17, 113G (Par17 [3]; peptide 3 mM): 0,157 ppm
- Combined chemical shift perturbation of full length Par17, 115M (Par17 [3]; peptide 3 mM): 0,084 ppm
- Combined chemical shift perturbation of full length Par17, 116V (Par17 [3]; peptide 3 mM): 0,326 ppm
- Combined chemical shift perturbation of full length Par17, 119F (Par17 [3]; peptide 3 mM): 0,125 ppm
- Combined chemical shift perturbation of full length Par17, 113G (Par17 [3]; peptide 5 mM): 0,221 ppm
- Combined chemical shift perturbation of full length Par17, 115M (Par17 [3]; peptide 5 mM): 0,11 ppm
- Combined chemical shift perturbation of full length Par17, 116V (Par17 [3]; peptide 5 mM): 0,454 ppm
- Combined chemical shift perturbation of full length Par17, 119F (Par17 [3]; peptide 5 mM): 0,167 ppm
- Combined chemical shift perturbation of full length Par17, 113G (Par17 [3]; peptide 1,5 mM): 0,099 ppm
- Combined chemical shift perturbation of full length Par17, 115M (Par17 [3]; peptide 1,5 mM): 0,055 ppm
- Combined chemical shift perturbation of full length Par17, 116V (Par17 [3]; peptide 1,5 mM): 0,201 ppm
- Combined chemical shift perturbation of full length Par17, 119F (Par17 [3]; peptide 1,5 mM): 0,08 ppm
